Values quoted from earlier work in US11678659B2, “Use as rodenticides of compounds that inhibit blood coagulation” (priority 2014, dated 2023).

Tests used:
thrombin receptor PAR-1 = target: T1, thrombin receptor PAR-1 (Homo sapiens, UniProt P25116)
T1 construct: endogenous in cells; host or cells: study subjects (in vivo), platelets
T1 sequence (P25116 22-425): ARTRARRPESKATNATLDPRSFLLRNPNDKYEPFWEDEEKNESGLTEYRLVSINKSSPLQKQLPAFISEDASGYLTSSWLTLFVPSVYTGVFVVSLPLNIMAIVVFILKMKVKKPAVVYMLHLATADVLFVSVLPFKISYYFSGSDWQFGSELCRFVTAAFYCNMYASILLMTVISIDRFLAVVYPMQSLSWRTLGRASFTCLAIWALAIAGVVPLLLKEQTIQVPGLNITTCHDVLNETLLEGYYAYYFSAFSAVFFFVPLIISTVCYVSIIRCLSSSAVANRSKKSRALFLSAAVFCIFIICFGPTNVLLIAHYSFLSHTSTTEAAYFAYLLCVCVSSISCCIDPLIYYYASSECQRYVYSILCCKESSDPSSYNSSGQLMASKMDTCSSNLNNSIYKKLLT

thrombin = target: T2, thrombin (Homo sapiens, UniProt P00734); conditions: administration for more than 35 days
T2 construct: from tissue; host or cells: blood of human subjects (in vivo)

SMILES | bleedings observed (thrombin receptor PAR-1; one study) | liver enzymes (thrombin receptor PAR-1; two phase II studies) | liver toxicity (thrombin)
Br.CCOc1cc2c(c(F)c1OCC)C(=N)N(CC(=O)c1cc(N3CCOCC3)c(OC)c(C(C)(C)C)c1)C2 [Atopaxar, 1-(3-tert-butyl-4-methoxy-5-morpholin-4-yl-phenyl)-2-(5,6-diethoxy-4-fluoro-3-imino-1H-isoindol-2-yl)ethanone-hydrobromide] | not statistically significant | increase in liver enzymes | –
CCOC(=O)CN[C@@H](C(=O)N1CC[C@H]1C(=O)NCc1ccc(/C(N)=N\O)cc1)C1CCCCC1 [ximelagatran] | – | – | risk of liver toxicity
